Data published in patent EP1054888B1 (priority 1998, dated 1999).
In brackets after ≈: the same amount, converted by molar mass.

Key:
Assay in all cases: microbe, parasite or virus in culture
Assay type in all cases: cell-based
Botrytis cinerea = details: read-out: MIC (Minimum Inhibitory Concentration) BOTRCI
Leptosphaeria nodorum = details: Parastagonospora nodorum, read-out: MIC (Minimum Inhibitory Concentration) LEPTNO
Sclerotinia sclerotiorum = details: read-out: MIC (Minimum Inhibitory Concentration) SCLESC
[1] = tested on: Mycosphaerella ligulicola; details: Stagonosporopsis ligulicola, read-out: MIC (Minimum Inhibitory Concentration) MYCOLG
Monilina fructigena = details: read-out: MIC (Minimum Inhibitory Concentration) MONIFG
Alternaria solani = details: read-out: MIC (Minimum Inhibitory Concentration) ALTESO
Phytophthora infestans = details: read-out: MIC (Minimum Inhibitory Concentration) PHYTIN
[2] = tested on: Magnaporthe grisea f. sp. oryzae; details: Pyricularia oryzae, read-out: MIC (Minimum Inhibitory Concentration) PYRIOR, Table II; total inhibition of mycelial growth, V8 juice nutrient solution, 6-12 days at 18-25°C, visual inspection
Pyrenophora teres = details: read-out: MIC (Minimum Inhibitory Concentration) PYRNTE
Rhizoctonia solani = details: read-out: MIC (Minimum Inhibitory Concentration) RHIZSO

SMILES	MIC (Botrytis cinerea) [µg/mL]	MIC (Leptosphaeria nodorum) [µg/mL]	MIC (Sclerotinia sclerotiorum) [µg/mL]	MIC [1] [µg/mL]	MIC (Monilina fructigena) [µg/mL]	MIC (Alternaria solani) [µg/mL]	MIC (Phytophthora infestans) [µg/mL]	MIC [2] [µg/mL]	MIC (Pyrenophora teres) [µg/mL]	MIC (Rhizoctonia solani) [µg/mL]
Fc1cccc(Cl)c1-c1c(Cl)nc2ncnn2c1C1CCCO1 (stereo not shown) [Example 11]	1.56 (≈ 4.42 µM)	1.56 (≈ 4.42 µM)	25 (≈ 70.8 µM)	12.5 (≈ 35.4 µM)	3.13 (≈ 8.86 µM)					
CCCCc1c(-c2c(F)cccc2Cl)c(Cl)nc2ncnn12 [Example 17]	0.2 (≈ 0.59 µM)	0.78 (≈ 2.3 µM)	0.78 (≈ 2.3 µM)	0.78 (≈ 2.3 µM)	3.13 (≈ 9.23 µM)					
CCCCCc1c(-c2c(F)cccc2Cl)c(Cl)nc2ncnn12 [Example 18]	0.2 (≈ 0.566 µM)	1.56 (≈ 4.42 µM)	0.78 (≈ 2.21 µM)	0.78 (≈ 2.21 µM)	3.13 (≈ 8.86 µM)					
COc1nc2ncnn2c(C2CCCCC2)c1-c1ccccc1F [Example 50]	> 100	> 100				> 100	> 100	25 (≈ 76.6 µM)	> 100	> 100
FC(F)(F)Oc1ccccc1-c1c(Cl)nc2ncnn2c1C1CCCO1 (stereo not shown) [Example 16]	25 (≈ 65 µM)	> 100	> 100	> 100	> 100					
CCC(C)c1c(-c2c(F)cccc2Cl)c(Cl)nc2ncnn12 (stereo not shown) [Example 28]	3.13 (≈ 9.23 µM)	> 100				6.25 (≈ 18.4 µM)	> 100	1.56 (≈ 4.6 µM)	6.25 (≈ 18.4 µM)	0.78 (≈ 2.3 µM)
Fc1cccc(Cl)c1-c1c(Cl)nc2ncnn2c1C1CCCC1 [Example 29]	1.56 (≈ 4.44 µM)	0.39 (≈ 1.11 µM)				0.78 (≈ 2.22 µM)	> 100	< 0.05	0.78 (≈ 2.22 µM)	0.78 (≈ 2.22 µM)
Cc1cccc(-c2c(-c3c(F)cccc3Cl)c(Cl)nc3ncnn23)c1 [Example 34]	6.25 (≈ 16.7 µM)	25 (≈ 67 µM)				1.56 (≈ 4.18 µM)	50 (≈ 134 µM)	0.78 (≈ 2.09 µM)	> 100	> 100
Clc1ccccc1-c1c(Cl)nc2ncnn2c1C1CCCCC1 [Example 43]	> 100	1.56 (≈ 4.49 µM)				1.56 (≈ 4.49 µM)	> 100	0.39 (≈ 1.12 µM)	> 100	> 100
Cc1ccccc1-c1c(-c2c(F)cccc2Cl)c(Cl)nc2ncnn12 [Example 35]	3.13 (≈ 8.39 µM)	6.25 (≈ 16.7 µM)				3.13 (≈ 8.39 µM)	25 (≈ 67 µM)	0.78 (≈ 2.09 µM)	> 100	3.13 (≈ 8.39 µM)
CCCCc1c(-c2ccccc2F)c(Cl)nc2ncnn12 [Example 21]	1.56 (≈ 5.12 µM)	3.13 (≈ 10.3 µM)				0.1 (≈ 0.328 µM)	100 (≈ 328 µM)	< 0.05	0.78 (≈ 2.56 µM)	3.13 (≈ 10.3 µM)
Fc1cc(F)c(-c2c(Cl)nc3ncnn3c2C2CCCCC2)c(F)c1 [Example 44]	< 0.05	0.2 (≈ 0.545 µM)				< 0.05	> 100	< 0.05	0.2 (≈ 0.545 µM)	0.78 (≈ 2.13 µM)
Fc1ccc(-c2c(-c3c(F)cccc3Cl)c(Cl)nc3ncnn23)cc1 [Example 41]	3.13 (≈ 8.3 µM)	> 100				1.56 (≈ 4.14 µM)	> 100	0.1 (≈ 0.265 µM)	3.13 (≈ 8.3 µM)	3.13 (≈ 8.3 µM)
CC(C)Cc1c(-c2c(F)cccc2Cl)c(Cl)nc2ncnn12 [Example 26]	0.2 (≈ 0.59 µM)	0.39 (≈ 1.15 µM)				0.78 (≈ 2.3 µM)	> 100	< 0.05	3.13 (≈ 9.23 µM)	0.78 (≈ 2.3 µM)
Fc1c(F)c(F)c(-c2c(Cl)nc3ncnn3c2C2CCCCC2)c(F)c1F [Example 101, 5-chloro-7-cyclohexyl-6-(pentafluorophenyl)-1,2,4-triazolo[1,5a]pyrimidine]	0.78 (≈ 1.94 µM)	0.2 (≈ 0.497 µM)				0.2 (≈ 0.497 µM)	> 100	0.2 (≈ 0.497 µM)	3.13 (≈ 7.77 µM)	> 100
